Reference: patent US4782014A, “Assay and purification of amyloid components, applications, and kits therefor” (Ciba-Geigy Corporation, priority 1985, dated 1988)
Values belong to the molecule of their own block, whether it stands above or below them.

Legend:
[1] = target: human SAP binding to TNP-KLH coated polystyrene (Homo sapiens, UniProt P02743); assay: Inhibition of binding of human SAP to TNP-KLH coated polystyrene; conditions: for IC50 / concentration at 50% inhibition of human SAP binding to TNP-KLH coated polystyrene: 40 ng/ml human SAP, preincubated 2 hours at 20° C.; for IC50: read-out: concentration at 50% inhibition of human SAP binding to TNP-KLH coated polystyrene
Chain of human SAP binding to TNP-KLH coated polystyrene (P02743 20-223): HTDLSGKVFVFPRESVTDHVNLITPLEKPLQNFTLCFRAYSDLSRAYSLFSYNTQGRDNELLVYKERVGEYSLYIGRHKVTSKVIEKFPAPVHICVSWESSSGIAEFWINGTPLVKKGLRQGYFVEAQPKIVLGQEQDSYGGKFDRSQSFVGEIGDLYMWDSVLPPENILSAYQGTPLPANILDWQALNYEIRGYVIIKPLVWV
Method: The samples containing 40 ng/ml human SAP are preincubated with dilutions of the compound to be tested as an inhibitor for two hours at 20° C. The perent decrease in SAP binding to TNP-KLH is calculated in comparison to the SAP binding in the absence of any inhibitor.

[2] = ELISA for SAP: binding of purified human SAP to plastic surface
Method: The wells of flat-bottom polystyrene microtiter plates (Immulon®, Dynatech, Zug, Switzerland) or polyvinyl chloride microtiter plates (Microtest III™, Becton Dickinson, Oxnard, CA, USA) are incubated with either 100 μl 0.3M NaHCO3 alone, 100 μl KLH 2 μg/ml in 0.3M NaHCO3, or 100 μl TNP-KLH (Example 1) 2 μg/ml in 0.3M NaHCO3 for one hour or more at room temperature. […] The plates are washed with 5 mM CaCl2, then incubated with 100 μl each of human SAP containing samples (standard solutions or serum dilutions in ELISA buffer) for 2 hours at 20° C. […] The plates are washed with 5 mM CaCl2, incubated for 2 hours at 20° C. with 100 μl of rabbit antiserum to human SAP (Calbiochem) diluted 1:10^4 with ELISA buffer, washed again with 5 mM CaCl2, and incubated overnight in a water-saturated atmosphere at 20° C. with 100 μl of horseradish peroxidase conjugated donkey anti-rabbit Ig antiserum (Amersham Int., Amersham, UK) diluted 1:5000 with ELISA buffer. The plates are washed, then developed with 100 μl per well of buffered o-phenylenediamine (100 mg in 48.6 ml 0.1M citric acid and 51.4 ml 0.2M Na2 HPO4, pH 5.0) containing 0.03% H2 O2 in the dark at 20° C. for 15 minutes. The reaction is stopped by addition of 25 μl 2.5M H2 SO4 and the optical density of the colour developed by the enzyme reaction determined at 492 nm using a Titertek® multiscan spectrophotometer (Flow Laboratories). […]

[3] = Retention of SAP on TNP-Sepharose column; assay type: binding, human; conditions: absence of Ca^2+ ions, TBS
[4] = ELISA for SAA: binding of human SAA to polystyrene

Molecule: O=[N+]([O-])c1cc([N+](=O)[O-])c2ccc(S(=O)(=O)O)cc2c1O [2,4-dinitro-1-naphthol-7-sulphonic acid]
- inhibition of SAP binding to TNP-KLH coated polystyrene, in words [1]: Inhibiting properties
- IC50 [1]: 43.3 ± 5.8 mM

- inhibition of SAP binding to TNP-KLH coated polystyrene, in words [1]: Inhibiting properties
- concentration at 50% inhibition of human SAP binding to TNP-KLH coated polystyrene [1]: 0.2 ± 0.07 µg/mL
Molecule: pectic acid

Molecule: O=C(O)CN(CCN(CC(=O)O)CC(=O)O)CC(=O)O [EDTA, ethylenediamine-N,N,N',N'-tetraacetic acid]
- inhibition of SAP binding to TNP-KLH coated polystyrene, in words [1]: inhibitors of SAP binding at concentrations equal or in excess of the Ca^2+ concentration
- IC50 [1]: 5.35 ± 1.3 mM

- IC50 [1]: 17 ± 2.2 mM
Molecule: O=C(O)CN(CCOCCOCCN(CC(=O)O)CC(=O)O)CC(=O)O [EGTA, 1,2-di(2-aminoethoxy)ethane-N,N,N',N'-tetraacetic acid]
- inhibition of SAP binding to TNP-KLH coated polystyrene, in words [1]: inhibitors of SAP binding at concentrations equal or in excess of the Ca^2+ concentration

Molecule: Nc1ccc([As](=O)(O)O)cc1 [p-aminophenyl-arsonic acid]
- inhibition of SAP binding to TNP-KLH coated polystyrene, in words [1]: Inhibiting properties
- IC50 [1]: 27.3 ± 4.9 mM

- SAP binding at reduced CaCl2 concentration ([2]; 0.06 mM or lower concentrations of CaCl2): no SAP is bound
- SAP binding at reduced CaCl2 concentration ([2]; 0.12 mM CaCl2): sharp decrease of SAP binding
Molecule: SAP: serum amyloid P-component, a 9.5S α1 glycoprotein of 235'000 Dalton molecular weight
- retention of SAP on TNP-Sepharose [3]: not retained

- inhibition of SAP binding to TNP-KLH coated polystyrene, in words [1]: compete efficiently for SAP
- concentration at 50% inhibition of human SAP binding to TNP-KLH coated polystyrene [1]: 0.33 ± 0.06 µg/mL
Molecule: TNP-BSA: prepared from BSA and 2,4,6-trinitrobenzenesulfonic acid yielding a conjugate with 15 TNP residues per BSA molecule

Molecule: O=[N+]([O-])c1ccc([As](=O)(O)O)cc1 [p-nitrophenylarsonic acid]
- inhibition of SAP binding to TNP-KLH coated polystyrene, in words [1]: Inhibiting properties
- IC50 [1]: 4.2 ± 1.3 mM

- binding of human SAA to KLH-coated polystyrene and polystyrene alone, in words ([4]; KLH-coated polystyrene and polystyrene alone): Substantial binding
- binding of human SAA to polystyrene coated with TNP-KLH, in words ([4]; TNP-KLH coated polystyrene): very efficiently
- binding of human SAA when Ca^2+ is omitted, in words ([4]; TNP-KLH coated polystyrene, Ca^2+ omitted): without loss in binding efficiency
B1: SAA: α1 globulin consisting of a single polypeptide chain of molecular weight between 11'500 and 14'000 Dalton (protein, UniProt P0DJI8 19-122, looked up)
Serum amyloid A-1 protein: RSFFSFLGEAFDGARDMWRAYSDMREANYIGSDKYFHARGNYDAAKRGPGGAWAAEVITDARENIQRFFGHGAEDSLADQAANEWGRSGKDPNHFRPAGLPEKY
